Measurements: patent US20190389882A1, “INHIBITORS OF BETA SECRETASE” (Janssen Pharmaceutica NV, priority 2017, published 2019)

What was measured:
β-secretase II (BACE2) = molecular target: T1, β-secretase II (BACE2) (Homo sapiens, UniProt Q9Y5Z0); assay: Automated (CyclOps) biochemical assay BACE2
T1 sequence (Q9Y5Z0 63-518): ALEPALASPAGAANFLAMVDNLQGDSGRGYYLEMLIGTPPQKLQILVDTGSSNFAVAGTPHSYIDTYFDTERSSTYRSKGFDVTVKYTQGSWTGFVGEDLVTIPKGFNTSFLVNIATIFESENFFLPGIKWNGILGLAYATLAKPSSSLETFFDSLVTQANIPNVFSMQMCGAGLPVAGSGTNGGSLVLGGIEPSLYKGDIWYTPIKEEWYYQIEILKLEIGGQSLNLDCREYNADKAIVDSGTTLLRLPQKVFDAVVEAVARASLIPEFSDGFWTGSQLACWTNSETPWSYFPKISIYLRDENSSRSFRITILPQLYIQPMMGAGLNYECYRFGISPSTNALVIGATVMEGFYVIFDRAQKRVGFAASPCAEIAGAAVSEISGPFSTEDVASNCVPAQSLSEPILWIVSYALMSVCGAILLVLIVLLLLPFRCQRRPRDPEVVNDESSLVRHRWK

β-secretase I (BACE1) = β-secretase I (BACE1) (Homo sapiens, UniProt P56817); assay: Automated (CyclOps) biochemical assay BACE1
β-secretase I (BACE1), sequence (P56817 46-501): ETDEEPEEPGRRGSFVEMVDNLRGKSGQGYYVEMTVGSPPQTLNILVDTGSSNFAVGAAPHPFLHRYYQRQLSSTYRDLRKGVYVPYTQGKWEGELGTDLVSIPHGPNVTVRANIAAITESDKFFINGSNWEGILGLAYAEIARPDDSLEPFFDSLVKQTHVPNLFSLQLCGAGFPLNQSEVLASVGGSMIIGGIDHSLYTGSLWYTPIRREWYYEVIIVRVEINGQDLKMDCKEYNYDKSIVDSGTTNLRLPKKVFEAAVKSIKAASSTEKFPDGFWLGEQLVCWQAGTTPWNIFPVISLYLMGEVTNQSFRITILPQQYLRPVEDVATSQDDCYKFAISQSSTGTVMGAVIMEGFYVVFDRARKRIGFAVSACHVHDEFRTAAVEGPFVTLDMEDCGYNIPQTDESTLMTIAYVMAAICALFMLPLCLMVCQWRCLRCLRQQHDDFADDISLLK

Structure (SMILES)	IC50 (β-secretase II (BACE2))	IC50 (β-secretase I (BACE1))
COc1ncc(C(=O)N2CCS(=O)(=O)CC2)c2c1C[C@]1(c3ccc(F)cc3F)N=C(N)SC[C@@H]1C2 [Compound 12]	832 nM	501 nM
COc1ncc(C(=O)Nc2ccncc2)c2c1C[C@]1(c3ccc(F)cc3F)N=C(N)SC[C@@H]1C2 [Compound 16]	138 nM	53.7 nM
COc1ncc(C(=O)N2C[C@H]3CC[C@@H](C2)O3)c2c1C[C@]1(c3ccc(F)cc3F)N=C(N)SC[C@@H]1C2 [Compound 19]	117 nM	18.6 nM
COc1cccc(N2CCN(C(=O)c3cnc(OC)c4c3C[C@H]3CSC(N)=N[C@@]3(c3ccc(F)cc3F)C4)CC2)c1 [Compound 24]	63.1 nM	61.7 nM
COc1ncc(C(=O)N2CCC(c3ccncc3)C2)c2c1C[C@]1(c3ccc(F)cc3F)N=C(N)SC[C@@H]1C2 (stereo partly shown) [Compound 26]	507 nM	15.7 nM
COc1ncc(CNC(=O)c2ncc(F)cc2F)c2c1C[C@]1(c3ccc(F)cc3F)N=C(N)SC[C@@H]1C2 [Compound 37]	70.8 nM	25.1 nM
CCOc1ncccc1C(=O)NCc1cnc(OC)c2c1C[C@H]1CSC(N)=N[C@@]1(c1ccc(F)cc1F)C2 [Compound 46]	407 nM	36.3 nM
COc1ncc(C(=O)N(C)c2ccncc2)c2c1C[C@]1(c3ccc(F)cc3F)N=C(N)SC[C@@H]1C2 [Compound 21]	324 nM	112 nM
COc1ncc(C(=O)N2CCC(Oc3ccc(F)cc3)CC2)c2c1C[C@]1(c3ccc(F)cc3F)N=C(N)SC[C@@H]1C2 [Compound 14]	38.9 nM	11 nM
COc1ncc(C(=O)N2CCN(C(C)=O)CC2)c2c1C[C@]1(c3ccc(F)cc3F)N=C(N)SC[C@@H]1C2 [Compound 27]	4170 nM	955 nM
COc1ncc(CNC(=O)CN2CCOCC2)c2c1C[C@]1(c3ccc(F)cc3F)N=C(N)SC[C@@H]1C2 [Compound 44]	79.4 nM	41.7 nM
COc1ncc(C(=O)N2CCN(C(=O)C3CC3)CC2)c2c1C[C@]1(c3ccc(F)cc3F)N=C(N)SC[C@@H]1C2 [Compound 10]	1450 nM	490 nM
COc1ncc(CNC(=O)c2ccc(C#N)cc2)c2c1C[C@]1(c3ccc(F)cc3F)N=C(N)SC[C@@H]1C2 [Compound 33]	178 nM	57.5 nM
COc1ncc(CNC(=O)c2ccncc2F)c2c1C[C@]1(c3ccc(F)cc3F)N=C(N)SC[C@@H]1C2 [Compound 38]	115 nM	19.1 nM
COc1ncccc1C(=O)NCc1cnc(OC)c2c1C[C@H]1CSC(N)=N[C@@]1(c1ccc(F)cc1F)C2 [Compound 47]	209 nM	25.7 nM
COc1ncc(CNC(=O)c2cccnc2C)c2c1C[C@]1(c3ccc(F)cc3F)N=C(N)SC[C@@H]1C2 [Compound 40]	186 nM	112 nM
COc1ncc(C(=O)N2CCC(C#N)C2)c2c1C[C@]1(c3ccc(F)cc3F)N=C(N)SC[C@@H]1C2 (stereo partly shown) [Compound 6]	282 nM	56.2 nM
COc1ncc(C(=O)N2CCCCC2)c2c1C[C@]1(c3ccc(F)cc3F)N=C(N)SC[C@@H]1C2 [Compound 20]	195 nM	50.1 nM
COc1cccc(C2CCN(C(=O)c3cnc(OC)c4c3C[C@H]3CSC(N)=N[C@@]3(c3ccc(F)cc3F)C4)C2)c1 (single isomer, unassigned) [Compound 25]	88.1 nM	14.8 nM

Structure (SMILES)	IC50 (β-secretase II (BACE2))	IC50 (β-secretase I (BACE1))
COc1ncc(C(=O)N2CC(C)OC(C)C2)c2c1C[C@]1(c3ccc(F)cc3F)N=C(N)SC[C@@H]1C2 (stereo partly shown) [Compound 9]	2140 nM	363 nM
COc1ncc(C(=O)N2Cc3cccnc3C2)c2c1C[C@]1(c3ccc(F)cc3F)N=C(N)SC[C@@H]1C2 [Compound 8]	3550 nM	1000 nM
COc1ncc(C(=O)N2CCN(c3ccncc3)CC2)c2c1C[C@]1(c3ccc(F)cc3F)N=C(N)SC[C@@H]1C2 [Compound 17]	2370 nM	158 nM
COCC1CCN(C(=O)c2cnc(OC)c3c2C[C@H]2CSC(N)=N[C@@]2(c2ccc(F)cc2F)C3)CC1 [Compound 11]	776 nM	155 nM
COc1ncc(CNC(=O)c2ccncn2)c2c1C[C@]1(c3ccc(F)cc3F)N=C(N)SC[C@@H]1C2 [Compound 50]	309 nM	115 nM
COc1ncc(CNC(=O)c2ccncc2C(F)(F)F)c2c1C[C@]1(c3ccc(F)cc3F)N=C(N)SC[C@@H]1C2 [Compound 35]	724 nM	138 nM
COc1ncc(CNC(=O)c2cccnc2)c2c1C[C@]1(c3ccc(F)cc3F)N=C(N)SC[C@@H]1C2 [Compound 45]	29.5 nM	8.51 nM
COc1ncc(C(=O)N2CCCC(OC)C2)c2c1C[C@]1(c3ccc(F)cc3F)N=C(N)SC[C@@H]1C2 (stereo partly shown) [Compound 23]	324 nM	61.7 nM
COc1ncc(C(=O)N2CCN(c3cccnc3)CC2)c2c1C[C@]1(c3ccc(F)cc3F)N=C(N)SC[C@@H]1C2 [Compound 5]	324 nM	145 nM
COc1cc(OC)nc(C(=O)NCc2cnc(OC)c3c2C[C@H]2CSC(N)=N[C@@]2(c2ccc(F)cc2F)C3)n1 [Compound 49]	178 nM	34.7 nM
COc1cc(C(=O)NCc2cnc(OC)c3c2C[C@H]2CSC(N)=N[C@@]2(c2ccc(F)cc2F)C3)c(OC)nn1 [Compound 41]	513 nM	79.4 nM
COc1ncc(CNC(=O)c2cnoc2C(C)C)c2c1C[C@]1(c3ccc(F)cc3F)N=C(N)SC[C@@H]1C2 [Compound 42]	138 nM	74.1 nM
COc1ncc(C(=O)N2CCOC(c3cccc(C)c3)C2)c2c1C[C@]1(c3ccc(F)cc3F)N=C(N)SC[C@@H]1C2 (stereo partly shown) [Compound 13]	309 nM	69.2 nM
COc1ncc(CNC(=O)c2cnc(C(F)(F)F)nc2)c2c1C[C@]1(c3ccc(F)cc3F)N=C(N)SC[C@@H]1C2 [Compound 36]	36.3 nM	21.9 nM
COc1cccc(C(=O)NCc2cnc(OC)c3c2C[C@H]2CSC(N)=N[C@@]2(c2ccc(F)cc2F)C3)n1 [Compound 39]	389 nM	182 nM
COc1ncc(CNC(=O)c2cccnc2F)c2c1C[C@]1(c3ccc(F)cc3F)N=C(N)SC[C@@H]1C2 [Compound 43]	97.7 nM	20.9 nM
COc1ncc(C(=O)N2CCN(c3nccs3)CC2)c2c1C[C@]1(c3ccc(F)cc3F)N=C(N)SC[C@@H]1C2 [Compound 7]	871 nM	324 nM
COc1ccccc1C(=O)NCc1cnc(OC)c2c1C[C@H]1CSC(N)=N[C@@]1(c1ccc(F)cc1F)C2 [Compound 34]	537 nM	219 nM
COc1ncc(C(=O)N(C)Cc2ccncc2)c2c1C[C@]1(c3ccc(F)cc3F)N=C(N)SC[C@@H]1C2 [Compound 18]	30.2 nM	8.51 nM
